Legend:
[1] = target: T1, NAPE-PLD activity of HepG2 cells (Homo sapiens, UniProt Q6IQ20); test: Cell-based NAPE-PLD activity in HepG2 cells (flame-NAPE); settings: for In-cell NAPE-PLD activity in HepG2 (10 μM) with PED-A1 or flame-NAPE as substrate: Table 3; for Emax / EC50: HepG2 cells; for Emax: % maximal induced activity (Table 2, Example 7); for EC50: flame-NAPE (Table 2, Example 7); for effect on NAPE-PLD activity in HepG2 cells: graded concentrations
T1 construct: endogenous in cells; host or cells: HepG2
Procedure: In vitro models of the hepatic steatosis of non-alcoholic fatty liver disease (NAFLD) are well-established, with the primary method being incubation of primary human hepatocytes or hepatocyte cell lines such as HepG2, HuH7, HepaRG, with oleic acid and palmitic acid for 24 to 48 h, then measuring the resulting steatosis, lipid peroxidation, apoptosis, and inflammatory gene expression. Using flame-NAPE to measure NAPE-PLD activity in the human hepatoma HepG2 cell line, the experimental data confirmed that VU534 activated NAPE-PLD in human cells (AC50 940 nM; max % bA 155%). Bithionol (10 μM) reduced HepG2 flame-NAPE hydrolysis by >67%.
NAPE-PLD activity was measured in cells as previously described, except that FluoroBrite DMEM (Gibco A1896701) was used as media. See Zarrow et al., J. Lipid Res. 63(1): 100156 (2022). For RAW264.7 assays, PED-A1 (3.6 μM final) was used as the substrate with 10 μM orlistat added to inhibit PLA1 activity, while for HepG2 cells, flame-NAPE was used (with no orlistat added).

[2] = target: T2, Fatty Acid Amide Hydrolase (FAAH) (Homo sapiens, UniProt O00519); test: FAAH activity assay (Cayman Chemicals); assay type: biochemical; settings: for Remaining FAAH Activity (33 μM): Table 3; for inhibition at 33 µM: 33 μM compound, compared to vehicle (0%); for inhibition of FAAH activity: graded concentrations up to 33 μM
T2 construct: purchased Cayman Chemicals
T2 sequence (O00519 1-579): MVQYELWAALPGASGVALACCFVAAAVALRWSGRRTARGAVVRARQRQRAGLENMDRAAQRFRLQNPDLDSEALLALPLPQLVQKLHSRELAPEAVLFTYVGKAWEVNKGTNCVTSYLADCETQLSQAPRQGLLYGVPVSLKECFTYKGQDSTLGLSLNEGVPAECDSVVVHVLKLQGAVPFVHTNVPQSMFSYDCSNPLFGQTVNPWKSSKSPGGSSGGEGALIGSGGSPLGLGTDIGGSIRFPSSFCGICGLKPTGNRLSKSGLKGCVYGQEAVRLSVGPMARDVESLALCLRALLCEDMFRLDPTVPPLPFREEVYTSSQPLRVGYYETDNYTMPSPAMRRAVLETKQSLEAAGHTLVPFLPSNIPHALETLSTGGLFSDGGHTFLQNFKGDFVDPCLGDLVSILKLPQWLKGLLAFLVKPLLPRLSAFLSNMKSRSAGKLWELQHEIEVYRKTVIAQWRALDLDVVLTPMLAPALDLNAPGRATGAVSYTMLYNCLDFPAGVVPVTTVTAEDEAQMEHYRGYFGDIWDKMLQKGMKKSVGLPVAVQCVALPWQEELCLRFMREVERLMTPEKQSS
Procedure: Concentration response curves were plotted for VU534 for the enzymes fatty acid amide hydrolase (FAAH) and soluble epoxide hydrolase (sEH).
The fluorescence interference assay was performed using the same method as the HTS assay, but with BODIPY-FL C5 (Thermo Fisher Scientific) used in place of PED-A1. sEH and FAAH activity assays were performed according to the manufacturer's specifications (Cayman Chemicals).

[3] = test system: HepG2 human hepatocytoma cells; test: Cytotoxicity (MTT) in HepG2 cells; assay type: cell-based; settings: for % HepG2 viability (33 μM): Table 3; for cytotoxicity in HepG2 cells: up to / at 30 μM
Procedure: (§1) Cytotoxicity was measured using MTT as previously described except that the studies used 96-well plates with 100 μL of 0.3 mg/mL MTT solution was added after 24 h of treatment and then replaced after 3 h with 0.1 M HCl in isopropanol. See Aggarwal et al., J. Biol. Chem. 295(21): 7289-7300 (2020). Viability was expressed as percent absorbance at 560 nm relative to vehicle controls.

[4] = test system: RAW264.7 mouse macrophages; test: Cytotoxicity (MTT) in RAW264.7 macrophages; assay type: cell-based; settings: for % viability RAW 264.7 (33 μM): Table 3; for 33 μM Mϕ % Viability: Table 2, 33 μM compound; for cytotoxicity in RAW264.7 cells: up to / at 30 μM
Procedure: as §1

[5] = target: T3, recombinant human NAPE-PLD (Homo sapiens, UniProt Q6IQ20); test: Concentration response with recombinant human NAPE-PLD, PED-A1 as substrate; assay type: biochemical; settings: for effect on activity of recombinant human NAPE-PLD: graded concentrations (FIG. 18A)
T3 construct: The expression plasmid including the full-length human NAPEPLD gene with a C-terminal hexahistidine tag; hexahistidine (His6) (C)
Source text: FIG. 18A-B show VU534 and VU533 activate human NAPE-PLD. […] Mean±SEM, n=3. Non-linear regression with variable slope (four parameter) was used to calculate EC50 and Emax.
Initial stocks of potential NAPE-PLD modulator compounds were purchased from Life Chemicals and provided by the Vanderbilt HTS screening facility. Additional compounds were synthesized by the Vanderbilt Chemical Synthesis core. LEI-401, [^2H4]PEA and [^2H4]OEA were purchased from Cayman Chemicals. N-palmitoyl-PE, 1,2-dioleoyl-PE and 1,2-dihexanoyl-PE were purchased from Avanti Polar Lipids. PED-A1 was purchased from Invitrogen. Flame-NAPE was synthesized as previously described. See Zarrow et al., J. Lipid Res. 63(1): 100156 (2022). [^2H4]N-palmitoyl-PE was synthesized using [^2H4] palmitic acid (Cambridge Isotope Laboratories) and 1,2-dioleoyl-PE and N-oleoyl-PE was synthesized using 1,2-dihexanoyl-PE and oleoyl chloride (Millipore Sigma). Recombinant mouse NAPE-PLD with a C-terminal hexahistidine tag was expressed in E. coli and purified using cobalt affinity beads as previously described. See Aggarwal et al., J. Biol. Chem. 295(21): 7289-7300 (2020). The expression plasmid including the full-length human NAPEPLD gene with a C-terminal hexahistidine tag inserted in a pET plasmid was purchased from VectorBuilder, and the protein expressed and purified in an identical manner to recombinant mouse NAPE-PLD. The sEH inhibitors TPPU (N-[1-(1-Oxopropyl)-4-piperidinyl]-N′-[4-(trifluoromethoxy)phenyl]urea) and AUDA (12-[[(tricyclo[3.3.1.13,7]dec-1-ylamino)carbonyl]amino]-dodecanoic acid) were purchased from Cayman Chemical and Sigma Chemicals, respectively.
In vitro fluorescence NAPE-PLD activity assays using recombinant NAPE-PLD and either PED-A1 or flame-NAPE as fluorogenic substrate were performed as previously described except with small modifications as noted below. See Aggarwal et al., J. Biol. Chem. 295(21): 7289-7300 (2020); Zarrow et al., J. Lipid Res. 63(1): 100156 (2022).
Concentration response curve (CRC) experiments used the same assay conditions as the HTS assay, except that graded concentrations of each test compound were used, with total amount of vehicle (DMSO) kept constant. CRC experiments with purified recombinant mouse NAPE-PLD were performed on two separate days, with values from each day normalized to vehicle only controls on same plate, and then all normalized values from both days averaged together. CRC experiments with human NAPE-PLD represent value from only a single day, due to limited amounts of this recombinant enzyme.

T1 sequence (Q6IQ20 whole entry): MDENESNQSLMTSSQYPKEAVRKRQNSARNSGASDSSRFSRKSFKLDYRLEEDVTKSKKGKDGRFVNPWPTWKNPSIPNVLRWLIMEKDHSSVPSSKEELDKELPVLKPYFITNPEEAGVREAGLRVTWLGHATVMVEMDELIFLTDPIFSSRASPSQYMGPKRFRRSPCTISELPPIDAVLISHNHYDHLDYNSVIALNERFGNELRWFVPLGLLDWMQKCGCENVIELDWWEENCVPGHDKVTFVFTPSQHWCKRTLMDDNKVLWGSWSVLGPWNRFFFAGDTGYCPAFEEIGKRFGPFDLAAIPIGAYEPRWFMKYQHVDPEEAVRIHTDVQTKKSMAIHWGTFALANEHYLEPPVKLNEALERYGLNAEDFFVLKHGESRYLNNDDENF
T3 sequence (Q6IQ20 whole entry): as above

Row | SMILES | In-cell NAPE-PLD activity in HepG2 (10 μM) with PED-A1 or flame-NAPE as substrate [1] [%] | Remaining FAAH Activity (33 μM) [2] [%] | % HepG2 viability (33 μM) [3] [%] | % viability RAW 264.7 (33 μM) [4] [%] | inhibition at 33 µM [2] [%] | 33 μM Mϕ % Viability [4] [%] | also measured
1 | Cc1cccc2sc(NC(=O)C3CCN(S(=O)(=O)c4cnn(C)c4)CC3)nc12 [VU210] | 124 | 89 | 67 | 86 | – | – | –
2 | Cc1ccc2sc(NC(=O)C3CCN(S(=O)(=O)c4ccc(F)cc4)CC3)nc2c1C [VU517] | – | 90 | – | 83 | < 15 | 80 | Emax [1]: 185%; EC50 [1]: 8.9 µM; effect on NAPE-PLD activity in HepG2 cells ([1]; flame-NAPE): enhances NAPE-PLD activity
3 | Cc1cc2nc(NC(=O)C3CCN(S(=O)(=O)c4ccc(F)cc4)CC3)sc2cc1C [VU536] | – | 75 | – | 114 | 25 | >85 | –
4 | O=C(Nc1nc2ccccc2s1)C1CCN(S(=O)(=O)c2ccc(F)c(Cl)c2)CC1 [VU233] | 130 | 90 | 69 | 111 | – | – | EC50, NAPE-PLD activity of HepG2 cells ([1]; FIG. 18B, flame-NAPE): not calculable; inhibition of FAAH activity [2]: only weak inhibition; cytotoxicity in HepG2 cells [3]: no cytotoxicity; cytotoxicity in RAW264.7 cells [4]: no cytotoxicity; EC50, recombinant human NAPE-PLD ([5]; FIG. 18A, PED-A1): not calculable; effect on activity of recombinant human NAPE-PLD [5]: no significant effect
5 | Cc1ccc(C)c2sc(NC(=O)C3CCN(S(=O)(=O)c4ccc(F)cc4)CC3)nc12 [VU533] | – | – | – | – | – | – | Emax, NAPE-PLD activity of HepG2 cells ([1]; FIG. 18B, flame-NAPE): 1.6 fold; effect on NAPE-PLD activity in HepG2 cells ([1]; flame-NAPE): increased NAPE-PLD activity; inhibition of FAAH activity [2]: only weak inhibition; cytotoxicity in HepG2 cells [3]: no cytotoxicity; cytotoxicity in RAW264.7 cells [4]: no cytotoxicity; Emax, recombinant human NAPE-PLD ([5]; FIG. 18A, PED-A1): 1.9 fold; effect on activity of recombinant human NAPE-PLD [5]: concentration-dependent increases
6 | Cc1cccc2sc(NC(=O)C3CCN(S(=O)(=O)c4cccnc4)CC3)nc12 [MRJ-058C] | – | – | – | – | < 15 | >85 | –
7 | Cc1cccc2sc(NC(=O)C3CCN(S(=O)(=O)c4ccc(F)c(Cl)c4)CC3)nc12 [MRJ-058B] | – | – | – | – | < 15 | >85 | –
8 | Cc1ccc2nc(NC(=O)C3CCN(S(=O)(=O)c4ccc(F)cc4)CC3)sc2c1 [VU486] | – | 89 | – | 89 | < 15 | >85 | –
9 | Cc1cccc2sc(NC(=O)C3CCN(S(=O)(=O)c4cccnc4)CC3)nc12 [VU211] | 148 | 86 | 72 | 88 | – | – | –
10 | Cc1cccc2sc(NC(=O)C3CCN(S(=O)(=O)c4cnn(C)c4)CC3)nc12 [MRJ-058D] | – | – | – | – | < 15 | >85 | –
11 | O=C(Nc1nc2ccccc2s1)C1CCN(S(=O)(=O)c2cccnc2)CC1 [VU203] | 122 | 79 | 41 | 57 | – | – | –
12 | Cc1cccc2sc(NC(=O)C3CCN(S(=O)(=O)c4ccc(F)c(Cl)c4)CC3)nc12 [VU209] | 206 | 88 | 73 | 88 | – | – | –
13 | Cc1ccc(S(=O)(=O)N2CCC(C(=O)Nc3nc4c(C)cc(C)cc4s3)CC2)cc1 [VU575] | – | 90 | – | 85 | < 15 | >85 | Emax [1]: 145%; EC50 [1]: 3.1 µM; effect on NAPE-PLD activity in HepG2 cells ([1]; flame-NAPE): enhances NAPE-PLD activity
14 | Cn1cc(S(=O)(=O)N2CCC(C(=O)Nc3nc4ccccc4s3)CC2)cn1 [VU227] | 125 | 97 | 66 | 106 | – | – | –

Reference: patent US20250250265A1, “BENZOTHIAZOLE-PHENYLSULFONYL-PIPERIDINE ANALOGS AS ACTIVATORS OF NACYLPHOSPHATIDYLETHANOLAMINE HYDROLYZING PHOSPHOLIPASE D” (priority 2022, published 2025)
